Reference: US20220002288A1, “MONOBACTAM COMPOUNDS AND USE THEREFOR” (priority 2018, published 2022)
Where a name gives a salt, the structure may show the parent alone.

Legend:
Type in all cases: cell-based
[1] = tested on: Pseudomonas aeruginosa; test: In vitro antibacterial activity, minimum inhibitory concentration (MIC)
Description: (§1) Compounds: The compounds prepared in the above examples and comparative examples. All test compounds were dissolved and diluted with DMSO, and the final concentrations were prepared as 64, 32, 16, 8, 4, 2, 1, 0.5, 0.25, 0.125, 0.0625 μg/mL in the experiment.
(§2) Bacterial strains: 6 strains of Acinetobacter baumannii (codenames: HDBAB-YK4, HDBAB-YK7, HDBAB-YK12, HDBAB-YK16, HDBAB_OXA_7, ATCC 19606), 2 strains of Pseudomonas aeruginosa (codenames: HDBPA-YK9, HDBPA)-YK15), 1 strain of Escherichia coli (codename: CLB30048), all provided by HD Biosciences (Shanghai) Co., Ltd.
(§3) Medium: Trypticase soy agar (TSA) (BD BBL 211043), and Cation-adjusted Mueller Hinton broth (CAMHB) (BD BBL212322).
(§4) The bacteria used for the minimum inhibitory concentration (MIC) test were stored frozen at −80° C., and needed 2 days to recover before use. A small amount of frozen bacteria was scraped with a sterile inoculation loop for streak inoculation on a TSA solid medium petri dish. The dish was placed in an ordinary incubator at 35±2° C. for 20-24 hours. 5-10 Colonies with similar morphologies were picked from the above-mentioned petri dish with a sterile inoculating loop for streak inoculation again on a TSA solid medium petri dish. The dish was then placed in an ordinary incubator at 35±2° C. for 20-24 hours.
(§5) 1.02×CAMHB liquid medium was taken out from a 4° C. refrigerator and placed at room temperature for preheating. 5-10 Individual bacterial colonies were picked from the solid petri dish of the above Section 2.1 and re-suspended in 500 μL of 0.9% NaCl, and then the OD600 was adjusted to 0.1-0.15 with a spectrophotometer. Then the bacteria were diluted 400 times with 1.02×CAMHB (two-step dilution method: firstly diluting 10 times, then diluting 40 times).
(§6) The number of inoculated bacteria can be obtained by counting the colonies on the petri dish (see Section 2.4).
(§7) One compound was arranged in each row of a 96-well test plate: the highest test concentration for each compound was 64 μg/mL, which was diluted by a factor of two.
(§8) Growth control (GC): 1.02×CAMHB and dimethyl sulfoxide (DMSO) containing bacterial inoculum, no compound.
(§9) Sterile control (SC): Containing 1.02×CAMHB and DMSO, no compound.
(§10) All test compounds were dissolved and diluted with DMSO. 50 μL of 3.2 mg/mL of each test compound was transferred to the initial well (A1-H1) of the dilution plate, and then 25 μL of DMSO was transferred to other wells. The test compounds were sequentially diluted by a factor of 2 from column 1 to column 11 (i.e. drawing 25 μL of test compound from column 1 to column 2 and mixing well, and then drawing 25 μL of test compound from column 2 to column 3 and mixing well, and then drawing 25 μL of test compound from column 3 to column 4 and mixing well, and so on, until diluting to column 11).
(§11) 2 μL of the compound was transferred from the compound plate to the corresponding well of the test plate. Meanwhile, 2 μL of 100% DMSO was transferred to the compound-free wells (the GC and SC wells).
(§12) 98 μL of the corresponding bacterial inoculum was added to the test plate (except for the SC well).
(§13) 98 μL of 1.02×CAMHB medium was added to the SC well of the test plate.
(§14) After the system was added, the test plate was covered with a sterile lid, centrifuged at 800 rpm for 30 seconds, then shaken on a plate shaker at 400 rpm for 1 minute for mixing well, and then placed in an incubator at 35±2° C. for 20 hours.
(§15) The inoculated bacteria were gradient diluted by 10 folds with the liquid medium, from 10^−1 to 10^−3. 100 μL of the above bacterial dilution was spread evenly on a TSA petri dish, 2 replicates for each dilution. After the medium was absorbed by TSA for 10 minutes, the petri dishes were reversed and incubated in an incubator at 35±2° C. for 24 hours.
(§16) A compound management system was turned on to check whether the barcode and compound arrangement of each test plate were correct. […]

[2] = tested on: Acinetobacter baumannii; test: as above
Description: as §1, §2, §3, §4, §5, §6, §7, §8, §9, §10, §11, §12, §13, §14, §15, §16

[3] = tested on: Escherichia coli; test: as above; details: strain CLB30048, read-out: MIC
Description: as §1, §2, §3, §4, §5, §6, §7, §8, §9, §10, §11, §12, §13, §14, §15, §16

[4] = tested on: drug-resistant Acinetobacter baumannii; test: MIC in combination with Relebactam
Excerpt: In addition, the inventors of the present invention also tested the inhibitory activities of the compound of Example 1 and Compound C, respectively, in combination with Relebactam on drug-resistant Acinetobacter baumannii (the experimental method was the same as that in Experimental Example 1).

CC1(C)[C@H](NC(=O)/C(=N\O[C@@H](COc2ccc(C(=O)Nc3cn(CCCN)[n+](CC4CNC4)c3)cc2)C(=O)O)c2csc(N)n2)C(=O)N1OS(=O)(=O)[O-] [Example 1, (S)-3-((Z)-2-(((S)-2-(4-((1-(3-aminopropyl)-2-(azetidin-3-ylmethyl)-1H-pyrazol-2-ium-4-yl)carbamoyl)phenoxy)-1-carboxyethoxy)imino)-2-(2-aminothiazol-4-yl)acetylamino)-2,2-dimethyl-4-oxoazetidin-1-yl Sulfate]
MIC ([1]; strain HDBPA-YK9): 2 µg/mL | MIC ([1]; strain HDBPA-YK15): 32 µg/mL | MIC ([2]; ATCC19606, strain ATCC 19606): 2 µg/mL | MIC ([2]; strain HDBAB-YK4): 2 µg/mL | MIC ([2]; strain HDBAB-YK7): 0.25 µg/mL | MIC ([2]; strain HDBAB-YK12): 2 µg/mL | MIC ([2]; strain HDBAB-YK16): 8 µg/mL | MIC ([2]; strain HDBAB_OXA_7): 4 µg/mL | MIC [3]: 2 µg/mL | MIC ([4]; strain HDBAB-YK12, in combination with 4 μg/mL Relebactam): 2 µg/mL | MIC ([4]; strain HDBAB-YK16, in combination with 4 μg/mL Relebactam): 4 µg/mL | MIC ([4]; strain HDBAB_OXA_7, in combination with 4 μg/mL Relebactam): 2 µg/mL
